Reference: patent US11207289B2, “Use of benzofuran lignans to induce IL-25 expression and suppress mammary tumor metastasis” (ACADEMIA SINICA, priority 2016, dated 2021)

Columns and labels:
[1] = system: MDA-MB-231 cells; test: MTT assay, cytotoxic effect on MDA-MB-231; format: cell-based, human
Procedure: (§1) M10, WI38, SKBR3, and MDA-MB-231 cells (1×10^5 cells/ml) dispensed in 96-well plates were incubated with vehicle or test compounds (Q2-3) for 24 h or 72 h in corresponding basal medium in a 5% CO2 incubator. To evaluate the effect of secreted IL-25 from Q2-3-treated fibroblasts on growth activity of mammary tumor cells, 4T1 and MDA-MB-231 cells (1×10^4 cells/ml) dispensed in 96-well plates were incubated with control medium or different fibroblast conditioned media (200 μl/ml) which was changed daily for 5 days. All treatments were performed in triplicate cell cultures. The growth activity of cells was assayed using a 3-(4, 5-dimethythiazol-2-yl)-2, 5-diphenyl tetrazolium bromide (MTT; Sigma-Aldrich) colorimetric method. The absorbance at 570 nm (A570) was measured using a multiwall scanning spectrophotometer.
FIG. 1 is a schematic depiction of cytotoxic effects of dihydrobenzofuran lignan (Q2-3) on breast tumor cells. (a): Scheme for synthesis of Q2-3 (methyl (E)-3-[2-(3,4-dihydroxyphenyl)-7-hydroxy-3-methoxycarbonyl-2,3-dihydro-1-benzofuran-5yl]prop-2-enoate) from two caffeic acid methyl ester molecules. (b) and (c): MTT assays for cytotoxic effect of Q2-3 on SKBR3 (ER^−Her^+ human breast cancer cell line), MDA-MB-231 (ER^−Her^− human breast cancer cell line), M10 (human normal epithelial cell line) and WI38 (human lung fibroblast cell line). 2×10^4 cells were seeded and compared for their growth activity after treatment with Q2-3 for 24 or 72 h. The beginning cytotoxic dosage of Q2-3 was detected at 0.3 μM, with >50% kill rate on SKBR3 and MDA-MB-231 cells.
The effects of Q2-3 on cell viability were tested on four different cell lines, i.e., normal human mammary epithelial (M10), normal human […] (WI38), and two human mammary tumor cells (SKBR3 and MDA-MB-231), by treating cells with Q2-3 at various concentrations for 24 h (FIG. 1b) and 72 h (FIG. 1c).

[2] = MTT assay, cytotoxic effect on WI38; format: cell-based; conditions: human, WI38 cells (human fibroblast cell line)
Procedure: as §1
FIG. 1 is a schematic depiction of cytotoxic effects of dihydrobenzofuran lignan (Q2-3) on breast tumor cells. (a): Scheme for synthesis of Q2-3 (methyl (E)-3-[2-(3,4-dihydroxyphenyl)-7-hydroxy-3-methoxycarbonyl-2,3-dihydro-1-benzofuran-5yl]prop-2-enoate) from two caffeic acid methyl ester molecules. […] The beginning cytotoxic dosage of Q2-3 was detected at 0.3 μM, with >50% kill rate on SKBR3 and MDA-MB-231 cells. […]

[3] = system: myeloid derived suppressor cells (MDSCs); test: Flow cytometry of MDSCs in lung tissue, 4T1 tumor resection model; format: in vivo, mice; conditions: 10 μg/kg, 3 weeks post tumor resection
Procedure: BALB/c mice were subcutaneously injected with 4T1-Luc2 cells (5×10^5/100 μl PBS/mouse) into the fourth mammary fat pad under isoflurane anesthesia. Tumor growth was monitored by measuring the tumor volume according to the formula: volume=length×(width)^2/2. After tumors were established (180-200 mm^3) on day 14, test mice were divided into different groups (8 mice/group) and subjected to different treatments. At 15 days post tumor cell implantation, primary 4T1 tumors in situ were surgically removed by a tumor resection process. For drug treatment, mice were administered with different agents, including vehicle-control (PBS), mouse IL-25 protein (10 μg/kg, ProSpec, Vineland, N.J.), Q2-3 (2, 20 or 100 μg/kg) or docetaxel (2 mg/kg; Sigma-Aldrich), by intravenous injection for 3 weeks (3 injections/week) post tumor resection. […] Bioluminescence signals from the 4T1-luc2 tumor cells in test mice were analyzed using a non-invasive IVIS imaging system (Calipers, Hopkinton, Mass.) after intraperitoneal injection of 150 mg/kg D-luciferin (NanoLight technology, Pinetop, Ariz.). […]
Suppressive effects of Q2-3 on in vivo expansion of MDSC populations were also evaluated for both the monocytic (CD11b^+Ly6C^+) and granulocytic (CD11b^+Ly6G^+) subsets of MDSCs. The populations of these two MDSC cell types in lung tissues of test mice were analyzed and compared at 3 weeks post tumor resection.

[4] = system: K562 cells; conditions: cited from earlier work
[5] = system: MCF-7 cells; conditions: cited from earlier work

COC(=O)/C=C/c1cc(O)c2c(c1)C(C(=O)OC)C(c1ccc(O)c(O)c1)O2 (centres unmarked) [Q2-3, methyl(E)-3-[2-(3,4-dihydroxyphenyl)-7-hydroxy-3-methoxycarbonyl-2,3-dihydro-1-benzofuran-5yl]-prop-2-enoate]
inhibition at 0.5 µM ([1]; Homo sapiens, ≥0.5 μM, 24 h and 72 h, vs 0.1% DMSO control, read-out: growth inhibition): ≥ 60%
kill rate ([1]; at 0.3 μM): > 50%
beginning cytotoxic dosage ([1]; treatment 24 or 72 h): 0.3 µM
viability at 2 µM [2]: ≥ 80%
monocytic CD11b+Ly6C+ MDSC population in lung tissue ([3]; PBS control 0.9%): 0.4%
granulocytic CD11b+Ly6G+ MDSC population in lung tissue ([3]; PBS control 42.9%): 12.5%
anti-proliferation effect [4]: significant anti-proliferation effect
anti-proliferation effect [5]: significant anti-proliferation effect
